Earlier results as cited in patent US20040167355A1, “Hydrocarbon products and methods of preparing hydrocarbon products” (priority 2003, published 2004).

Experiments:
[1] = 25° C.; 450 ppm surfactant, 420 ppm hardness (3:1 Ca++:Mg++)
[2] = 1% solution of the sodium salt of the surfactant

Row | SMILES | loss of surfactant in hard water [1] [%] | Krafft temperature [2] [°C]
1 | CCCCCCCCCCC(C)c1ccc(S(=O)(=O)O)cc1 (stereo not shown) [2-Phenyl Dodecyl Benzene Sulfonate] | 100 | 36
2 | CCCCCCCC(C)CCC(C)c1ccc(S(=O)(=O)O)cc1 (stereo not shown) [5-Methyl-2-Phenyl Dodecyl Benzene Sulfonate] | 5 | 16
